Data taken from patent US8993717B2, “Gadd45beta targeting agents” (Imperial Innovations Limited, priority 2009, dated 2015).
Square brackets hold non-standard residues; d marks the D form. Peptide text beside a SMILES is read from it. * marks the point of attachment. Cbz = O=C(OCc1ccccc1)*

Key:
Gadd45β/MKK7 interaction = biological target: T1, Gadd45β/MKK7 interaction (Homo sapiens, UniProt O14733); assay: Co-immunoprecipitation assay, lysates of HEK-293 cells expressing HA-Gadd45β and FLAG-MKK7; format: binding; conditions: 1 or 5 nM peptide
T1 construct: The GST-fused full-length kinase was coated for 16 h at 4° C., at a concentration of 42 nM; made in house
T1 sequence (O14733 1-419): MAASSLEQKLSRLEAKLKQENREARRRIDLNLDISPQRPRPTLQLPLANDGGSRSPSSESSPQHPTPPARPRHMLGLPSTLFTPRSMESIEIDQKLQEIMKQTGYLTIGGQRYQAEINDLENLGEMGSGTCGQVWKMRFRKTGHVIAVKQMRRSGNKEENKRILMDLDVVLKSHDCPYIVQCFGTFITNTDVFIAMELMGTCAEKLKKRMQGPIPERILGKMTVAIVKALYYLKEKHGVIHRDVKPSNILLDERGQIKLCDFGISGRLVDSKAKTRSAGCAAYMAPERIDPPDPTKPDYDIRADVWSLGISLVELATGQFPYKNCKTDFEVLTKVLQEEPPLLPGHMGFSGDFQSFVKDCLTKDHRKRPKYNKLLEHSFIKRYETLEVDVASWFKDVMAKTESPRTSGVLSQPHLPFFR
Description: Human Embryonic Kidney (HEK-293) were cultured in Dulbecco's modified Eagle's medium (DMEM) supplemented with 10% fetal calf serum (FCS), 100 units/ml penicillin, […] streptomycin, and 1% glutamine. HEK-293 cells (2.2×10^6) were seeded onto 10 cm^2 tissue-culture dishes, and the following day, were transfected with pcDNA-FLAG-MKK7 and pcDNA-HA-Gadd45β plasmids, using a standard Ca3(PO4)2 precipitation technique (Papa, S et al., (2004) Nat. Cell Biol. 6, 146-153). Forty-eight hours after transfection, the cells were washed once with PBS, then resuspended and incubated for 30 min at 4° C. in lysis buffer (20 mM HEPES, 350 mM NaCl, 20% glycerol, 1 mM MgCl2, 0.2 mM EGTA, 1 mM DTT, 1 mM Na3VO4, and 50 mM NaF) supplemented with protease inhibitors (1 mM phenylmethylsulfonylfluoride, 10 μM chymostatin, 2 μg/ml aprotinin, and 2 μg/ml leupeptin) with occasional gentle shaking. The lysed cells were collected and then centrifuged at 45,000×g for 40 min. The resulting cleared cell lysates were used for further analysis.
Immunoprecipitations were performed using essentially the same conditions described in Papa, S et al., (2004) Nat. Cell Biol. 6, 146-153 and the references therein, and an anti-FLAG antibody which precipitated FLAG-tagged MKK7. […]

CaCO2 = CaCO2 assays; format: in vitro ADME; conditions: data not shown
Solubility = format: physicochemical; conditions: result in words
[1] = test system: 22 resistant tumour cell lines; assay: [3H]thymidine incorporation assay in a panel of 22 resistant tumour cell lines; conditions: 100 μM, 144 hours
Description: In these latter assays, the effects of Z-DTPs, Ac-DTPs and Z-LTPs on the survival/proliferation of tumour cell lines was investigated by measuring DNA synthesis using standard tritiated thymidine ([^3H]thymidine; [^3H]-TdR) uptake assays. In the analyses shown, cells were incubated for 24, 72, 120 or 144 hrs at 37° C. in the presence or absence of control or bioactive tetrapeptides, as indicated, then subjected to an additional incubation for 18 hrs with [^3H]-TdR (0.037 MBq/well, equivalent to […]). Cells were subsequently harvested onto glass fibre filter mats using a 96-well plate automated cell harvester, after which scintillation fluid was added, and [^3H]thymidine incorporation measured by liquid scintillation spectroscopy on a beta counter. The results are expressed as the percentages of the counts per minute (c.p.m.) (directly correlating with the extent of cell proliferation) measured with tetrapeptide-treated cultures relative to the c.p.m. measured with the corresponding cultures incubated with medium alone (untreated cells). All experiments were performed in triplicate.

Gadd45β = biological target: T2, Gadd45β (Homo sapiens, UniProt O75293); assay: Surface Plasmon Resonance, immobilized Gadd45β; format: binding; conditions: 1 nM to 10 μM
T2 construct: made in house
T2 sequence (O75293 1-160): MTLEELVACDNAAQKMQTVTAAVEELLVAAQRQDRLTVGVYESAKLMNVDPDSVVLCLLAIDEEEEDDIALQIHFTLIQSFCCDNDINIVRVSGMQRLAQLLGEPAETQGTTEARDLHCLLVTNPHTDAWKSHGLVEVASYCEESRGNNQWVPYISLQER
Description: To determine how DTPs bind to the Gadd45 β/MKK7 complex, experiments were performed with a Biacore3000 SPR instrument (GE Healthcare, Milan, Italy), using 4-channels CM5 sensorchips (GE Healthcare, Milan, Italy). Full length human Gadd45β was prepared and purified as described in the reference by Tornatore L., et al. (2008). J Mol Biol; 378:97-111. […] The protein was purified to homogeneity by two subsequent steps of affinity chromatography (Ni-NTA support) and gel filtration (Superdex G75), and then characterized by SDS-PAGE, LC-MS to verify identity and purity, and by Circular Dichroism to assess folding.
MKK7KD was immobilized on the Biacore sensorchip via classical EDC/NHS coupling chemistry at pH 5 (protein pI, ˜9) at a flow rate of 5 uL/min An immobilization level of about 8000 Response Units was achieved. Gadd45β, which is an intrinsically acidic protein with a pI of about 4.5, was immobilized at pH 3.5 (6000 RU immobilization levels) on a separate channel. The residual reactive groups on both the Gadd45β and MKK7KD channels were finally inactivated by treatment with ethanolamine. On another channel the same procedure of activation with EDC/NHS and inactivation with ethanolamine was performed. […]

Structure (SMILES): CC(=O)N[C@H](Cc1ccc(O)cc1)C(=O)N[C@H](CC(=O)O)C(=O)N[C@H](Cc1c[nH]cn1)C(=O)N[C@H](Cc1ccccc1)C(N)=O [DTP1, Acetyl-(D-Tyr)-(D-Asp)-(D-His)-(D-Phe)-NH2] (Ac-[dY][dD][dH][dF]-NH2)
- disruption of the Gadd45β/MKK7 interaction in co-immunoprecipitation (Gadd45β/MKK7 interaction): no or very little Gadd45β

Structure (SMILES): CC(=O)N[C@H](Cc1ccc(O)cc1)C(=O)N[C@H](CCC(=O)O)C(=O)N[C@H](CCCNC(=N)N)C(=O)N[C@H](Cc1ccccc1)C(N)=O [DTP2, Acetyl-(D-Tyr)-(D-Glu)-(D-Arg)-(D-Phe)-NH2] (Ac-[dY][dE][dR][dF]-NH2)
- disruption of the Gadd45β/MKK7 interaction in co-immunoprecipitation (Gadd45β/MKK7 interaction): no or very little Gadd45β
- cellular permeability (CaCO2): low cellular permeability

Structure (SMILES): N=C(N)NCCC[C@@H](NC(=O)[C@@H](CCC(=O)O)NC(=O)[C@@H](Cc1ccc(O)cc1)NC(=O)OCc1ccccc1)C(=O)N[C@H](Cc1ccccc1)C(N)=O [Compound 9, Z-D-Tyr-D-Glu-D-Arg-D-Phe-NH2] (Cbz-[dY][dE][dR][dF]-NH2)
- solubility (Solubility): high solubility
- cytotoxicity in resistant tumour cell lines [1]: no cytotoxicity

Structure (SMILES): CC(=O)N[C@H](Cc1ccc(O)cc1)C(=O)N[C@H](CCCNC(=N)N)C(=O)N[C@H](Cc1ccccc1)C(N)=O [Compound 17, Ac-D-Tyr-D-Arg-D-Phe-NH2] (Ac-[dY]-[dR]-[dF]-NH2)
- binding to Gadd45β in isolation (Gadd45β): does not bind
